# Assay results taken from the Kinase Knowledgebase extract (Sharma et al. 2016).
# Target: ROCK2 (human) (UniProt O75116)
# Test: Enzyme Assay
# ROCK2 (human), sequence (O75116 whole entry, looked up): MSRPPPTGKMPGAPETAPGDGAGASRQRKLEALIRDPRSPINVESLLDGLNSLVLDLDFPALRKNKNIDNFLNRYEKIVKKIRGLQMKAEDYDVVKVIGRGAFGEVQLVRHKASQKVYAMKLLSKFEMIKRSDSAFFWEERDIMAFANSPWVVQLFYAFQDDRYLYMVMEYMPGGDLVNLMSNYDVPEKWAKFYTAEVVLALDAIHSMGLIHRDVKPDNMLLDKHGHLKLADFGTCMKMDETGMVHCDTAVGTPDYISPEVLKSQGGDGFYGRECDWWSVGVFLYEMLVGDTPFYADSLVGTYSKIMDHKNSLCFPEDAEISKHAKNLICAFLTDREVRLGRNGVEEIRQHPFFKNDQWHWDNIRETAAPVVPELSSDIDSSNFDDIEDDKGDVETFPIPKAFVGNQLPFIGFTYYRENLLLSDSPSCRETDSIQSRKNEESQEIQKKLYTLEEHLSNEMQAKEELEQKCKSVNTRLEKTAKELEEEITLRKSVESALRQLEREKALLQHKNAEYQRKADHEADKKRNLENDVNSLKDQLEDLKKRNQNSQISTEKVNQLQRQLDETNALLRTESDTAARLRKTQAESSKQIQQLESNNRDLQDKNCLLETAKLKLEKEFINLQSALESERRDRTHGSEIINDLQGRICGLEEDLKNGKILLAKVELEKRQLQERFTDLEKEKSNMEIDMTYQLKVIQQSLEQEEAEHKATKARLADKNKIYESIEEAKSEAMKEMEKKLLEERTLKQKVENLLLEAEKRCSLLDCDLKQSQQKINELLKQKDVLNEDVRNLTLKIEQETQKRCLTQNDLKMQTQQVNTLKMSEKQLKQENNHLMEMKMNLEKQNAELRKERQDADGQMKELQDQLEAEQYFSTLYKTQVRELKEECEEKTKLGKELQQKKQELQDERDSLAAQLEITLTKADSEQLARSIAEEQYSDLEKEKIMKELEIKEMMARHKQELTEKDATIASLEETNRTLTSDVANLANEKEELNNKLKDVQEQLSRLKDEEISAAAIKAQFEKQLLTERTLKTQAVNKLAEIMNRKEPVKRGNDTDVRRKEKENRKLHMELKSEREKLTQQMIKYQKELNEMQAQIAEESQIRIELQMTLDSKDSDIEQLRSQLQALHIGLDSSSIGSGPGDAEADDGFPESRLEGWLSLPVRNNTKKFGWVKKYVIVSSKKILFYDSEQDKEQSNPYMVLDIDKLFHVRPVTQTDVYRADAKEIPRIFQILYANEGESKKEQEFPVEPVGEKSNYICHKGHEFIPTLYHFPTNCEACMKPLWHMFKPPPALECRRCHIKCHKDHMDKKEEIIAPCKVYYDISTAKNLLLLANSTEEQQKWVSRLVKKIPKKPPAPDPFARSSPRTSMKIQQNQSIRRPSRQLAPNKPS
row,Compound,IC50
1,NCc1ccc(C(=O)Nc2ccncc2F)cc1-c1cccc(C(=O)Nc2ccc(SC3CCOC3=O)cc2)c1 (stereo unspecified),< 100 nM
2,NCc1ccc(C(=O)Nc2ccncc2F)cc1-c1cccc(C(=O)Nc2ccc(NC3CCOC3=O)cc2)c1 (stereo unspecified),< 100 nM
3,CC1(C)COC(=O)C1Sc1ccc(NC(=O)c2cccc(-c3cc(C(=O)Nc4ccncc4F)ccc3CN)c2)cc1 (stereo unspecified),< 100 nM
4,NCc1ccc(C(=O)Nc2ccncc2F)cc1-c1cccc(C(=O)Nc2ccc(SC3CCOC3=O)cc2F)c1 (stereo unspecified),< 100 nM
5,NCc1ccc(C(=O)Nc2ccncc2F)cc1-c1cccc(NC(=O)c2ccc(NC3CCOC3=O)cc2)c1 (stereo unspecified),< 100 nM
6,Cc1cc(NC2CCOC2=O)ccc1NC(=O)c1cccc(-c2cc(C(=O)Nc3ccncc3F)ccc2CN)c1 (stereo unspecified),< 100 nM
7,NCc1ccc(C(=O)Nc2ccncc2)cc1-c1cccc(NC(=O)c2ccc(SC3CCOC3=O)cc2)c1 (stereo unspecified),< 100 nM
8,NCc1ccc(C(=O)Nc2ccncc2F)cc1-c1cccc(C(=O)Nc2cccc(SC3CCOC3=O)c2)c1 (stereo unspecified),< 100 nM

# Second part, the compound after the results:
row,IC50,Compound
1,< 100 nM,NCc1ccc(C(=O)Nc2ccncc2F)cc1-c1cccc(C(=O)Nc2ccc(SC3COC(=O)C3)cc2)c1 (stereo unspecified)
2,< 100 nM,CN(c1ccc(NC(=O)c2cccc(-c3cc(C(=O)Nc4ccncc4F)ccc3CN)c2)cc1)C1CCOC1=O (stereo unspecified)
3,< 100 nM,NCc1ccc(C(=O)Nc2ccncc2F)cc1-c1cccc(C(=O)Nc2ccc(CNC3CCOC3=O)cc2)c1 (stereo unspecified)
4,< 100 nM,NCc1ccc(C(=O)Nc2ccncc2F)cc1-c1cccc(C(=O)Nc2ncc(NC3CCOC3=O)s2)c1 (stereo unspecified)
5,< 100 nM,NCc1ccc(C(=O)Nc2ccncc2F)cc1-c1cccc(NC(=O)c2ccc(SC3CCOC3=O)cc2)c1 (stereo unspecified)
6,< 100 nM,NCc1ccc(C(=O)Nc2ccncc2F)cc1-c1cccc(C(=O)Nc2ccc(OC3CCOC3=O)cc2)c1 (stereo unspecified)
7,< 100 nM,NCc1ccc(C(=O)Nc2ccncc2F)cc1-c1cccc(C(=O)Nc2ccc(SCC3CCOC3=O)cc2)c1 (stereo unspecified)
8,< 100 nM,CC1CC(Sc2ccc(NC(=O)c3cccc(-c4cc(C(=O)Nc5ccncc5F)ccc4CN)c3)cc2)C(=O)O1 (stereo unspecified)
